In one assay the test system is DU 145. The assay is described as follows: In vitro tumor cell proliferation, DU 145. The class given is cell-based, human. The note with it: read-out: In vitro Tumor Cell Proliferation (IC50, μM) Prostate DUI45. The method in brief: (§1)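 Viable (trypan blue-excluding) cells plated and left overnight at 37° C, then exposed to drug for 3 days, refed with fresh drug-containing medium for 4 more days. TCA-fixed cells stained with 0.4% sulforhodamine B; alternatively, CyQUANT read after 3 days of drug and freezing at −80° C.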

A further assay concerns the target T1, cdk4/cyclin D1 (Homo sapiens, UniProt P11802).
T1 construct: made in house; host or cells: Sf9 insect cells (Bac-to-Bac baculovirus, pFastBac)
As to the kind of experiment: Cyclin-dependent kinase 4 Assay. The class given is biochemical. The note with it: cdk4/cyclin D1, GST-Rb substrate, 10 μM ATP, 30 min at 37° C.; read-out: CDK4 Inhibition IC50. Put shortly:
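Insect-cell lysate of coexpressed human cdk4/cyclin D1 (0.1 μg) phosphorylated bead-bound GST-Rb (0.5 μg) in 50 mM HEPES pH 7.5, 10 mM MgCl2, 1 mM EGTA for 30 min at 37 °C. Filters were washed with TNEN and scintillation-counted; IC50 values derived.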

In a further assay the test system is HT-29. As to the kind of experiment: In vitro tumor cell proliferation, HT-29. The class given is cell-based, human. The note with it: read-out: In vitro Tumor Cell Proliferation (IC50, μM) Colon HT-29 (converted). The method in brief:
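HT-29 human colon adenocarcinoma cells plated overnight at 37° C., then exposed to drug for 3 days, medium with fresh drug replaced for a further 4 days. Cells fixed with 10% TCA and stained with 0.4% sulforhodamine B; alternatively, CyQUANT read after 3 days of drug exposure.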

For another assay, the system named is Colo-205. The assay is described as follows: In vitro tumor cell proliferation, Colo-205. In kind it is cell-based, human. The note with it: read-out: In vitro Tumor Cell Proliferation (IC50, μM) Colon Colo-205. Put shortly:
as §1

Another assay has as its system MDA-MB-231. As to the kind of experiment: In vitro tumor cell proliferation, MDA-MB-231. The note with it: read-out: In vitro Tumor Cell Proliferation (IC50, μM) Breast MDA-MB-231. The class given is cell-based, human. Put shortly: as §1
Another assay concerns DMS-114. The assay is described as follows: In vitro tumor cell proliferation, DMS-114. In kind it is cell-based, human. The note with it: read-out: In vitro Tumor Cell Proliferation (IC50, μM) Lung DMS-114. Put shortly:
as §1

The next assay has as its system PC-3. As to the kind of experiment: In vitro tumor cell proliferation, PC-3. In kind it is cell-based, human. The note with it: read-out: In vitro Tumor Cell Proliferation (IC50, μM) Prostate PC-3. Put shortly: as §1
The subject of the next assay is MDA-MB-435. As to the kind of experiment: In vitro tumor cell proliferation, MDA-MB-435. In kind it is cell-based, human. The note with it: read-out: In vitro Tumor Cell Proliferation (IC50, μM) Breast MDA-MB-435. As for the experimental part:
The proliferation of tumor cells was measured using a sulforhodamine B assay as described in Skehan, P., et al., J. Natl. Cancer Inst. […] Tumor cells were harvested with trypsin-EDTA, cells that excluded trypan blue were counted, added to 96-well plates and incubated overnight at 37° C. Drug was added to the wells following dilution in culture medium. Three days later, the medium was removed and replenished with medium containing fresh drug and incubated an additional 4 days. The cells were then fixed with 0.1 ml 10% trichloroacetic acid for 60 min at 4° C. The plates were rinsed five times with tap water, air-dried and stained for 30 min with 0.4% sulforhodamine B in 1% acetic acid and air-dried.
Alternatively, the CyQUANT cell proliferation assay was used to quantify tumor cell proliferation. Tumor cells were harvested with trypsin-EDTA, cells that excluded trypan blue were counted, added to 96-well plates and incubated overnight at 37° C. Drug was added to the wells following dilution in culture medium. Three days later the medium was removed and the plates frozen at −80° C. for at least 30 minutes.

In another assay the target is T2, cdk2/cyclin E (Homo sapiens, UniProt P24941).
T2 construct: made in house; host or cells: insect cells (baculovirus co-infection)
As to the kind of experiment: Cyclin-Dependent Kinase 2 Assay (cdk-2 inhibition). The note with it: GST-Rb substrate, 30 min at 30° C. The class given is biochemical. Put shortly: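 GST-Rb bound to glutathione-Sepharose beads (0.5 μg/well) as substrate in 50 mM HEPES pH 7.5, 10 mM MgCl2, 1 mM EGTA. Recombinant cdk2/cyclin E at 0.1 μg per 100 μl, 30 min at 30 °C. Reaction stopped by filtration, TNEN washes, scintillation counting.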

A further assay relates to A549. As to the kind of experiment: In vitro tumor cell proliferation, A549. The class given is cell-based, human. The note with it: read-out: In vitro Tumor Cell Proliferation (IC50, μM) Lung A549. Put shortly:
as §1

Where [1] appears, read: Homo sapiens, DU-145, values marked * (mark not explained).
Where [2] appears, read: Homo sapiens, HT-29, values marked * (mark not explained).
Setting [3] is: Homo sapiens, COLO 205, values marked * (mark not explained).
[4] abbreviates: values marked * (mark not explained), dihydrochloride.
[5] abbreviates: Homo sapiens, MDA-MB-231, values marked * (mark not explained).
[6] abbreviates: Homo sapiens, DMS-114, values marked * (mark not explained).
The mark [7] stands for this setting: Homo sapiens, PC-3, values marked * (mark not explained).
The mark [8] stands for this setting: Homo sapiens, MDA-MB-435, values marked * (mark not explained).
Setting [9] is: Homo sapiens, A549, values marked * (mark not explained).

The structures appear in SMILES notation. Values joined by “and” are separate entries in the source; they are usually repeats but may differ in a detail not shown here. Equal values may be shown once. Where a name gives a salt, the structure may show the parent alone. Read-outs that look alike come from different tables or passages of the source.

T1 sequence (P11802 whole entry): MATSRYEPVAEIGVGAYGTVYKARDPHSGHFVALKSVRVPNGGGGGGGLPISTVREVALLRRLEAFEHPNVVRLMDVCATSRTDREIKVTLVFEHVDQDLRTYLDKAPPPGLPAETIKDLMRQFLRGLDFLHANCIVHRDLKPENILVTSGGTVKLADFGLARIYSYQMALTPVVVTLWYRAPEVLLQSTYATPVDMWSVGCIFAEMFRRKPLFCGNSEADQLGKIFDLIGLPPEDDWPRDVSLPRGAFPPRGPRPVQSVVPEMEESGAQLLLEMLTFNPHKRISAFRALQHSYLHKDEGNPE
T1 sequence (P24385 whole entry partner): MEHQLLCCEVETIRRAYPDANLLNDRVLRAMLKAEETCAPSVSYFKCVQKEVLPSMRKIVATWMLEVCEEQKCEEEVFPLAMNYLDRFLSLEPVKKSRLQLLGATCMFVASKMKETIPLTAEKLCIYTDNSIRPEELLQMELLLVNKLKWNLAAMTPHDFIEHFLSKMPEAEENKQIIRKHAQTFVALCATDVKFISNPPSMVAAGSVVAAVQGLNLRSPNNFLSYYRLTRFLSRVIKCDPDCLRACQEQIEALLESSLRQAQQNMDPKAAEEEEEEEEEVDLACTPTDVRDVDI

Regarding `CC(CCCC(C)(C)O)Nc1nc(N[C@H]2CC[C@H](N)CC2)nc2c1ncn2C1CCCC1` (relative stereo) [Example 54, 2-[Trans-(4-aminocyclohexyl)amino]-6-[(5-hydroxy-1,5-dimethylhexyl)amino]-9-cyclopentylpurine dihydrochloride], the IC50 in the assay on DU 145 (setting [1]) is 1.4 µM; on cdk4/cyclin D1 it was 2 µM and 1.2 µM; with HT-29 (setting [2]), 1 µM; in the assay with Colo-205 (setting [3]), 0.63 µM; with Colo-205 (setting [4]), 0.58 µM; in the assay with MDA-MB-231 (setting [5]), 1 µM. The IC50 came out at 0.78 µM in the assay with DMS-114 (setting [6]); 0.61 µM in the assay on DMS-114 (setting [4]); 0.83 µM in the assay on PC-3 (setting [7]); 0.8 µM with PC-3 (setting [4]); 1.6 µM in the assay with MDA-MB-435 (setting [8]); 0.085 µM against cdk2/cyclin E. Besides, the figures for the IC50 in the assay on A549 (setting [9]) and in the assay with A549 (setting [4]) were 0.68 µM and 0.63 µM, respectively.

In the case of `N[C@H]1CC[C@H](Nc2nc(NCCc3cccnc3)c3ncn(C4CCCC4)c3n2)CC1` [Example 7, 2-[Trans-(4-aminocyclohexyl)amino]-6-[(3-pyridyl)-2-ethylamino]-9-cyclopentylpurine dihydrochloride], the IC50 in the assay on DU 145 (setting [1]) came out at 10 µM; in the assay on DU 145 (setting [4]) it was 9 µM; at cdk4/cyclin D1, 0.3 µM; with Colo-205 (setting [3]) it was 6.3 µM; in the assay on Colo-205 (setting [4]), 7.8 µM; in the assay on MDA-MB-231 (setting [5]), 7.9 µM. In addition, the IC50 in the assay with MDA-MB-231 (setting [4]) stood at 7 µM; with DMS-114 (setting [6]), 16 µM; in the assay on DMS-114 (setting [4]) it was 24 µM; in the assay on PC-3 (setting [7]), 8 µM; in the assay with PC-3 (setting [4]) it was 4.6 µM; in the assay on MDA-MB-435 (setting [8]) it was 11 µM. The IC50 at cdk2/cyclin E was 0.06 µM; in the assay with A549 (setting [9]), 15 µM.

On to `N[C@H]1CC[C@H](Nc2nc(NCCCO)c3ncn(C4CCCC4)c3n2)CC1` [Example 53, 2-[Trans-(4-aminocyclohexyl)amino]-6-[(3-hydroxypropyl)amino]-9-cyclopentylpurine dihydrochloride], for which the IC50 is 7.5 µM in the assay on DU 145 (setting [1]); 11 µM in the assay with DU 145 (setting [4]); 0.29 µM and 0.094 µM and 0.075 µM at cdk4/cyclin D1; 5.1 µM with Colo-205 (setting [3]); 5 µM in the assay on Colo-205 (setting [4]); 6.7 µM with MDA-MB-231 (setting [5]). Further, the IC50 in the assay on MDA-MB-231 (setting [4]) worked out at 8.5 µM; in the assay on DMS-114 (setting [6]), 16 µM; with DMS-114 (setting [4]), 17 µM; in the assay on PC-3 (setting [7]) it was 3.4 µM; in the assay on PC-3 (setting [4]), 5.9 µM; in the assay with MDA-MB-435 (setting [8]) it was 12 µM. The IC50 with MDA-MB-435 (setting [4]) is 11 µM; against cdk2/cyclin E it was 0.013 µM and 0.026 µM; in the assay on A549 (setting [9]), 12 µM; with A549 (setting [4]), 9.3 µM.

`NCCCCCCCCNc1nc(N[C@H]2CC[C@H](N)CC2)nc2c1ncn2C1CCCC1` [Example 56, 2-[Trans-(4-amninocyclohexyl)amino]-6-[(8-aminooctyl)amino]-9-cyclopentylpurine dihydrochloride]: the IC50 in the assay on DU 145 (setting [1]) was 4.9 µM; in the assay with DU 145 (setting [4]), 3.6 µM; at cdk4/cyclin D1 it was 0.86 µM; in the assay with HT-29 (setting [2]), 2.5 µM; in the assay with HT-29 (setting [4]), 3.4 µM; in the assay with Colo-205 (setting [3]) it was 3.5 µM. Besides, the IC50 with Colo-205 (setting [4]) was found to be 6.3 µM; with MDA-MB-231 (setting [5]), 2.2 µM; with MDA-MB-231 (setting [4]) it was 3.5 µM; in the assay on PC-3 (setting [7]), 2.7 µM; with PC-3 (setting [4]), 4.4 µM; in the assay on MDA-MB-435 (setting [8]), 3.8 µM. The IC50 with MDA-MB-435 (setting [4]) worked out at 3.1 µM; at cdk2/cyclin E, 0.115 µM; in the assay on A549 (setting [9]), 2.8 µM; in the assay with A549 (setting [4]) it was 2.5 µM.

The values are drawn from US6413974B1, “6,9,-disubstituted 2-[trans-(4-aminocyclohexyl) amino] purines” (Aventis Pharmaceuticals Inc., priority 1998, dated 2002).
